Measurements as given in publication PMC9181915, “Synthesis and Anti-Neuroinflammatory Activity of 1,7-diphenyl-1,4-heptadien-3-ones in LPS-Stimulated BV2 Microglia Via Inhibiting NF-κB/MAPK Signaling Pathways” (Molecules, 2022).

Columns and labels:
[1] = system: TNF-α; experiment: LPS-induced TNF-α release in BV2 cells (ELISA); assay type: cell-based, mouse; details: 3 µM, 1 h pretreatment, LPS 1 μg/mL 24 h, vs. LPS alone
Method: (§1) BV2 microglia cells were seeded at 1 × 10^5 cells/well in a 24-well microplate and incubated overnight. […] CU-19, CU-21 and LPS were configured with DMEM medium (2% FBS). According to the protocol of the manufacturer, supernatant was harvested at the 24th hour for the assay of IL-6, TNF-α and PGE-2 with ELISA kits (Absin Shanghai, China). Briefly, 100 μL of biotinylated antibody reagent and the culture supernatant were added to anti-mouse IL-6, TNF-α and PGE-2-precoated 96-well plates, and the plates were incubated for 2.5 h at room temperature. The plate was washed with a washing buffer and subsequently incubated with 100 μL of the streptavidin–HRP solution for 20 min at room temperature. The plate was washed and incubated with 100 μL of TMB substrate solution for 20 min at room temperature in the dark. The reaction was stopped by adding 50 μL of stop solution, and then the absorbance was measured at 450 nm by a plate reader. The average value was substituted into the standard curve to obtain the […] concentration.

[2] = system: IL-6; experiment: LPS-induced IL-6 release in BV2 cells (ELISA); assay type: cell-based, mouse; details: 3 µM, 1 h pretreatment, LPS 1 μg/mL 24 h, vs. LPS alone
Method: as §1

[3] = system: ERK; experiment: LPS-induced ERK phosphorylation in BV2 cells (Western blot); assay type: cell-based; details: 3 μM, 1 h pretreatment, LPS 1 μg/mL 24 h
Method: (§2) CU-19, CU-21 and LPS were configured with DMEM medium (2% FBS). The cells were collected and washed three times with ice-cold PBS. The lysate (containing 1% protease inhibitor and phosphatase inhibitor) was added to the collected cells for suspension, and the cells were lysed by ultrasonic crusher. Then the cell lysates were centrifuged (14,000 rpm, 10 min, 4 °C) […] and collect the supernatant. Aliquots of the lysates were separated on 10% sodium dodecyl sulphate (SDS)-polyacrylamide gel electrophoresis (PAGE) and then electro blotted onto a polyvinylidene difluoride (PVDF) membrane. The blots were blocked with 5% (w/v) nonfat dry milk for 2 h at room temperature, followed by incubation with specific primary antibodies at 4 °C overnight. Blots were washed with PBST and incubated with secondary antibody for 2 h, after which an ECL reagent was used for chemiluminescent detection.

[4] = system: PGE-2; experiment: LPS-induced PGE-2 release in BV2 cells (ELISA); assay type: cell-based, mouse; details: 3 µM, 1 h pretreatment, LPS 1 μg/mL 24 h, vs. LPS alone
Method: as §1

[5] = system: JNK; experiment: LPS-induced JNK phosphorylation in BV2 cells (Western blot); assay type: cell-based; details: 3 μM, 1 h pretreatment, LPS 1 μg/mL 24 h
Method: as §2

[6] = In vivo pharmacokinetic study in rats; set-up: species or system Sprague–Dawley male rats; details: for AUC(0-inf) / AUC(0-t) / Cmax / half-life / MRT last / MRT inf: male, Sprague-Dawley, rat plasma, mean ± SD, n = 4; for AUC(0-inf) / AUC(0-t) / Cmax / half-life / MRT last / MRT inf / Increase of T1/2 in comparison with that of CU: single intravenous dose 20 mg/kg; for MRT last: read-out: MRT (0-t) (converted); for MRT inf: read-out: MRT (0-∞) (converted); for Metabolites detected in plasma by HPLC: rat plasma after intravenous 20 mg/kg, chromatograms at 5, 10, 20 min (Figures S1–S9); for Increase of T1/2 in comparison with that of CU: rat
Method: After a single intravenous dose of 20 mg/kg, 0.5 mL of blood was obtained from the fossa orbitalis veniplex of rats at 5, 10, 20, 30, 45, 60, 120, 180 and 240 min. HPLC was used to determine the concentration of each compound in plasma and the DAS software was used for the noncompartmental pharmacokinetic analysis of the plasma concentration–time data.
Sprague–Dawley male rats, 200–240 g, were housed in cages in an airconditioned room with light dark cycle of 12 h before the experiment started. The animals were fasted for 12 h with water ad libitum. […] The administration volume was 6 mL per kg of body weight. The compounds were dissolved in PEG400 (10% of the administration volume) and water (90% of the administration volume) and sonicated for 30 min. After tail vein injection administration at a dose of 20 mg/kg, 0.5 mL blood was obtained from fossa orbitalis veniplex of rats at 5, 10, 20, 30, 45, 60, 120, 180 and 240 min. Whole blood samples were collected in heparinized tubes and the plasma was immediately centrifuged (10,000 rpm, 10 min, 4 °C) and then stored at −20 °C until analysis. The calibration standards and the plasma samples were extracted by protein precipitation using methanol.

[7] = system: LPS-induced NO release in BV2 cells; experiment: Inhibition of LPS-induced NO release in BV2 cells; assay type: cell-based; details: Mus musculus, BV-2; for inhibition at 3 µM: pretreated 1 h, then LPS 1 μg/mL for 24 h, BV2 cells; for IC50: BV2 cells, 0.3, 1.0, 3.0 μM, LPS 1 μg/mL 24 h, mean ± SD, n = 3, read-out: IC50 to inhibit LPS-induced NO release
Method: (§3) The BV2 microglial cells were purchased from the China Center for Type Culture Collection, CCTCC (Wuhan, Hubei). BV2 microglia cells were incubated in DMEM media supplemented with 10% (v/v) FBS, 100 U/mL penicillin G and […] streptomycin at 37 °C with 5% CO2.
Nitrite, a stable product of nitric oxide, was used to assess NO production. To study the effects of the compounds on NO production, BV2 microglia cells in the logarithmic phase were plated at 1 × 10^5 cells/well in a 24-well microplate and incubated in DMEM medium (10% FBS) overnight. The cells were pretreated with various concentrations of the test compounds for 1 h and further co-cultured with 1 μg/mL LPS and 5% CO2 for 24 h in a 37 °C incubator; then, the supernatant was taken and stored at −20 °C for NO detection. The target compound and LPS were configured with DMEM medium (2% FBS). The determination of NO was carried out according to the instructions. Unpretreated and unstimulated BV2 microglia cells were conducted as the blank control group. The absorbance value was determined at 540 nm, and the corresponding NO content was calculated by using the standard curve. The NO inhibitory rate of the various concentrations of agents in BV2 cells was calculated as per the following formula:Inhibition rate (%) = (LPS(NO concentration) − sample(NO concentration))/(LPS(NO concentration) − negative control(NO concentration)) × 100%.

[8] = system: p38; experiment: LPS-induced p38 phosphorylation in BV2 cells (Western blot); assay type: cell-based; details: 3 μM, 1 h pretreatment, LPS 1 μg/mL 24 h
Method: as §2

[9] = system: COX-2; experiment: LPS-induced COX-2 expression in BV2 cells (Western blot); assay type: cell-based; details: 3 μM, 1 h pretreatment, LPS 1 μg/mL 24 h
Method: as §2

[10] = system: NF-κB; experiment: LPS-induced NF-κB nuclear translocation in BV2 cells (immunofluorescence); assay type: cell-based; details: 3 μM with LPS, 24 h
Method: CU-19, CU-21 and LPS were configured with DMEM medium (2% FBS). After 24 h of treatment, cells were fixed with 4% paraformaldehyde for 18 min and washed three times with PBS (5 min per wash). The fixed cells were then permeabilized in […] for 15 min and washed three times with PBS (5 min per wash). Nonspecific binding sites were blocked with 5% goat serum for 30 min. These cells were then incubated with anti-NF-κB antibody at a dilution of 1:400 overnight at 4 °C. After washing with PBS three times, cells were incubated with fluorescent-conjugated secondary antibody (1:150) for 1 h, and counterstained with DAPI (1:50) at room temperature for 15 min in the dark. Cells were then washed and imaged via confocal microscopy.

[11] = system: iNOS; experiment: LPS-induced iNOS expression in BV2 cells (Western blot); assay type: cell-based; details: 3 μM, 1 h pretreatment, LPS 1 μg/mL 24 h
Method: as §2

[12] = MTT cell viability assay in BV2 microglia cells; assay type: cell-based; details: mouse, mean ± SD, n = 3
Method: as §3
Cell viability assays were evaluated using a 3-(4,5-dimethylthiazol-2-yl)-2,5-diphenyltetrazolium bromide (MTT) assay. BV2 microglia cells were seeded in 96-well plates at a density of 1.6 × 10^5 cells/well in complete medium and incubated for 24 h. Then, the culture medium was sucked and discarded, and sterile PBS was added for washing, and then PBS was removed. Then the cells were treated with different concentrations of target compounds for 24 h. An amount equal to 100 μL of MTT was added to each well and the cells were further incubated for 2–4 h. An amount equal to 150 μL of DMSO was added into a 96-well plate and vibrated with micro-oscillator for 10 min. The optical density (A) was measured at […] on a microplate reader. The inhibitory rate of the various concentrations of agents in BV2 cells was calculated using the following formula:Cell viability (%) = [A492 (sample) − A492 (blank)]/[A492 (control) − A492 (blank)] × 100%

## COc1ccc(/C=C/C(=O)/C=C/CCc2ccccc2)cc1OC [CU-19, (1E,4E)-1-(3,4-dimethoxyphenyl)-7-phenyl-1,4-heptadien-3-one]
[1]
  Inhibition of LPS-induced TNF-α release: significantly inhibited
[2]
  Inhibition of LPS-induced IL-6 release: significantly inhibited
[3]
  ERK phosphorylation compared to the LPS group: significantly decreased
[4]
  Inhibition of LPS-induced PGE-2 release: significantly inhibited
[5]
  JNK phosphorylation compared to the LPS group: significantly decreased
[6]
  AUC(0-inf): 2220 ng·h/mL
  AUC(0-t): 1770 ng·h/mL
  Cmax: 3330 ± 393 ng/mL
  half-life: 2.25 ± 0.104 h
  MRT last: 1.02 h
  MRT inf: 2.12 h
  Metabolites detected in plasma by HPLC: no obvious metabolites
  Increase of T1/2 in comparison with that of CU: 4.5 fold
[7]
  inhibition at 3 µM: 50.3%
  IC50: 1.6 ± 0.31 µM
[8]
  p38 phosphorylation compared to the LPS group: significantly decreased
[9]
  Inhibition of LPS-induced COX-2 expression: significantly inhibited
[10]
  Inhibition of LPS-induced NF-κB nuclear translocation: able to inhibit NF-κB nuclear translocation
[11]
  Inhibition of LPS-induced iNOS expression: significantly inhibited
[12]
  viability at 24 h, 1 µM: 96.94 ± 0.03%
  viability at 24 h, 3 µM: 96.33 ± 0.02%
  viability at 24 h, 10 µM: 67.91 ± 0.37%

## COc1cc(/C=C/C(=O)CC(=O)/C=C/c2ccc(O)c(OC)c2)ccc1O [CU, curcumin, reference compound]
[3]
  ERK phosphorylation compared to the LPS group: inhibited
[5]
  JNK phosphorylation compared to the LPS group: inhibited
[6]
  AUC(0-inf): 678 ng·h/mL
  AUC(0-t): 652 ng·h/mL
  Cmax: 2450 ± 132 ng/mL
  half-life: 0.412 ± 0.282 h
  MRT last: 0.235 h
  MRT inf: 0.342 h
[7]
  inhibition at 3 µM: 37.4%
  IC50: > 3 µM
[8]
  p38 phosphorylation compared to the LPS group: inhibited
[12]
  viability at 24 h, 1 µM: 97.57 ± 0.05%
  viability at 24 h, 3 µM: 95.26 ± 0.05%
  viability at 24 h, 10 µM: 28.15 ± 0.19%

## COc1ccc(CC/C=C/C(=O)/C=C/c2ccccc2)cc1 [CU-21, (1E,4E)-7-(4-methoxyphenyl)-1-phenyl-1,4-heptadien-3-one]
[1]
  Inhibition of LPS-induced TNF-α release: significantly inhibited
[2]
  Inhibition of LPS-induced IL-6 release: significantly inhibited
[3]
  ERK phosphorylation compared to the LPS group: significantly decreased
[4]
  Inhibition of LPS-induced PGE-2 release: significantly inhibited
[5]
  JNK phosphorylation compared to the LPS group: significantly decreased
[6]
  AUC(0-inf): 3530 ng·h/mL
  AUC(0-t): 2830 ng·h/mL
  Cmax: 6850 ± 634 ng/mL
  half-life: 2.72 ± 0.613 h
  MRT last: 0.757 h
  MRT inf: 2.32 h
  Metabolites detected in plasma by HPLC: no obvious metabolites
  Increase of T1/2 in comparison with that of CU: 5.5 fold
[7]
  inhibition at 3 µM: 66.1%
  IC50: 1.74 ± 0.66 µM
[8]
  p38 phosphorylation compared to the LPS group: significantly decreased
[9]
  Inhibition of LPS-induced COX-2 expression: significantly inhibited
other
  melting point: 58 to 60 °C
[10]
  Inhibition of LPS-induced NF-κB nuclear translocation: able to inhibit NF-κB nuclear translocation
[11]
  Inhibition of LPS-induced iNOS expression: significantly inhibited
[12]
  viability at 24 h, 1 µM: 96.94 ± 0.01%
  viability at 24 h, 3 µM: 94.55 ± 0.09%
  viability at 24 h, 10 µM: 77.89 ± 0.5%

## COc1ccc(/C=C/C(=O)/C=C/CCc2ccccc2)cc1 [CU-3, (1E,4E)-7-phenyl-1-(4-methoxyphenyl)-1,4-heptadien-3-one]
[7]
  inhibition at 3 µM: 35.2%
other
  melting point: 48 to 50 °C
[12]
  viability at 24 h, 1 µM: 106.7 ± 0.14%
  viability at 24 h, 3 µM: 101.55 ± 0.01%
  viability at 24 h, 10 µM: 98.5 ± 0.01%
